Experimental data: patent US20220153875A1, “ANTIGEN-BINDING MOLECULE CONTAINING ANTIGEN-BINDING DOMAIN OF WHICH BINDING ACTIVITY TO ANTIGEN IS CHANGED DEPENDING ON MTA, AND LIBRARY FOR OBTAINING SAID ANTIGEN-BINDING DOMAIN” (Chugai Seiyaku Kabushiki Kaisha, priority 2019, published 2022)

Experiments:
SK-MES-1 cells = assay: Uptake of extracellular MTA by MTAP-non-deficient cells SK-MES-1 (MTA in culture solution, LC-MS); assay type: in vitro ADME; details: SK-MES-1, MTA added at 100 nM, 0, 4, 24, 48, 72 hours
Description: (§1) Since the MTA concentration in the culture solution of MTAP-deficient cells increases over time, it is inferred that there is an intracellular to extracellular MTA transfer pathway. However, in MTAP-non-deficient cells. MTA concentration in the culture solution was very low (FIG. 2), despite the expected presence of ˜1 uM MTA within the cells (FIG. 1). […] Thereafter, an MTA solution was added to the culture solution so as to make the MTA concentration 100 nM, and the cells were cultured for a predetermined time (MTA: Sigma, Catalog No. D5011-100MG).

HT-1376 cells = assay: Uptake of extracellular MTA by MTAP-non-deficient cells HT-1376 (MTA in culture solution, LC-MS); assay type: in vitro ADME; details: HT-1376, MTA added at 100 nM, 0, 4, 24, 48, 72 hours
Description: as §1

MTA concentration in the culture solution (SK-MES-1 cells): decreased over time
MTA concentration in the culture solution (HT-1376 cells): decreased over time
Compound: CSC[C@H]1O[C@@H](n2cnc3c(N)ncnc32)[C@H](O)[C@@H]1O (stereo in doubt) [MTA, methylthioadenosine]
